Measured values from patent US9718788B2, “Heteroaryl compounds useful as inhibitors of E1 activating enzymes” (MILLENNIUM PHARMACEUTICALS, INC., priority 2006, dated 2017).

Molecular target: T1, recombinant human NAE enzyme (Homo sapiens, UniProt Q8TBC4)
T1 construct: His (N); made in house; host or cells: Sf9 insect cells (baculovirus, Bac-to-Bac)
T1 sequence (Q8TBC4 1-463): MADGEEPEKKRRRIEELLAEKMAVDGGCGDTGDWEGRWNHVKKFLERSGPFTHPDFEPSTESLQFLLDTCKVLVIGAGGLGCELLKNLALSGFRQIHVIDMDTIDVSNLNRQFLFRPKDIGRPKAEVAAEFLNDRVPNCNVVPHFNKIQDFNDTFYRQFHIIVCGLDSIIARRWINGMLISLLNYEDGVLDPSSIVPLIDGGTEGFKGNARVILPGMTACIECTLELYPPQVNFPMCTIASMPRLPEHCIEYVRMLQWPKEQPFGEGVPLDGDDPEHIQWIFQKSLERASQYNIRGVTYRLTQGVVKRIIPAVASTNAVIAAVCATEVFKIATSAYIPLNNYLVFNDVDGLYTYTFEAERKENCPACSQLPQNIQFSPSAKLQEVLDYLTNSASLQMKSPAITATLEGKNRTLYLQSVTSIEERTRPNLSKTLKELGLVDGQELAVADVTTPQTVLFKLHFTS
T1 sequence (Q13564 1-534 partner): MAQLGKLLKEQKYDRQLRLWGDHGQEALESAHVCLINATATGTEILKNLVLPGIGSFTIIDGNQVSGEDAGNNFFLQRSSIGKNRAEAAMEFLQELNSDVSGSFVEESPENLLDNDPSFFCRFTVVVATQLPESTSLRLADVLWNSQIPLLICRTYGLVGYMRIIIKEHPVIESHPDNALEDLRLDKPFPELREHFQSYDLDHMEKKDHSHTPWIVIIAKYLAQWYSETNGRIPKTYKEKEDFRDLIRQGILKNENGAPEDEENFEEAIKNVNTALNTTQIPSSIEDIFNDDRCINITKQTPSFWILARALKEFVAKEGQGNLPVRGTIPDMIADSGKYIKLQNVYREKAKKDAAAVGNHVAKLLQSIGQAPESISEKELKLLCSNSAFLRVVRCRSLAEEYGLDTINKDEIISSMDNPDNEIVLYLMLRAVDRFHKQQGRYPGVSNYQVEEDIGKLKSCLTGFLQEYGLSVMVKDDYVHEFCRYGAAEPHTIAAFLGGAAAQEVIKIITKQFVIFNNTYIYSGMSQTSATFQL
Assay: Nedd8-Activating Enzyme (NAE) HTRF Assay
Format: biochemical
Details: 20 μM ATP
In short: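 Recombinant human NAE (NAEα/His-NAEβ from Sf9 cells) at 0.20 nM with 20 μM ATP, 0.01 μM Ubc12-GST and 0.075 μM Nedd8-Flag in HEPES pH 7.5, 105 min at 24° C. EDTA stop; Eu-anti-FLAG/APC-anti-GST HTRF read after 1 h.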

Row | SMILES | IC50 (bound given in μM) | IC50 (bound given in nM)
1 | NS(=O)(=O)OC[C@@H]1C[C@@H](O)[C@H](Nc2cc(N[C@H]3CCc4ccccc43)ncn2)C1 [Compound I-76, [(1S,3R,4R)-3-({6-[(1S)-2,3-dihydro-1H-inden-1-ylamino]pyrimidin-4-yl}amino)-4-hydroxycyclopentyl]methyl sulfamate] | > 10 µM | –
2 | CO[C@H]1c2ccccc2C[C@H]1Oc1cc(O[C@@H]2C[C@@H](COS(N)(=O)=O)[C@@H](O)C2)ncn1 [Compound I-77, {(1S,2S,4R)-2-hydroxy-4-[(6-{[(1S,2R)-1-methoxy-2,3-dihydro-1H-inden-2-yl]oxy}-pyrimidin-4-yl)oxy]cyclopentyl}methyl sulfamate] | < 10 µM | > 0.5 µM
3 | CO[C@@H]1c2ccccc2C[C@@H]1Oc1cc(O[C@@H]2C[C@@H](COS(N)(=O)=O)[C@@H](O)C2)ncn1 [Compound I-79, {(1S,2S,4R)-2-hydroxy-4-[(6-{[(1R,2S)-1-methoxy-2,3-dihydro-1H-inden-2-yl]oxy}-pyrimidin-4-yl)oxy]cyclopentyl}methyl sulfamate] | < 10 µM | > 0.5 µM
4 | NS(=O)(=O)OC[C@@H]1C[C@@H](Oc2ncnc3c2ncn3Cc2ccccc2)C[C@@H]1O [Compound I-80, {(1S,2S,4R)-4-[(9-benzyl-9H-purin-6-yl)oxy]-2-hydroxycyclopentyl}methyl sulfamate] | < 10 µM | > 0.5 µM
5 | NS(=O)(=O)OC[C@@H]1C[C@@H](Nc2cc(CCc3ccccc3)ncn2)C[C@@H]1O [Compound I-81, ((1S,2S,4R)-2-hydroxy-4-{[6-(2-phenylethyl)pyrimidin-4-yl]amino}cyclopentyl)methyl sulfamate] | < 10 µM | > 0.5 µM
6 | CO[C@H]1Cc2ccccc2[C@H]1Nc1cc(O[C@@H]2C[C@@H](CNS(N)(=O)=O)[C@@H](O)C2)ncn1 [Compound I-82, N-({(1S,2S,4R)-2-hydroxy-4-[(6-{[(1R,2S)-2-methoxy-2,3-dihydro-1H-inden-1-yl]amino}pyrimidin-4-yl)oxy]cyclopentyl}methyl)sulfamide] | – | ≤ 0.5 µM
7 | CO[C@H]1Cc2ccccc2[C@H]1Nc1ncnc(O[C@@H]2C[C@@H](COS(N)(=O)=O)[C@@H](O)C2)c1F [Compound I-83, {(1S,2S,4R)-4-[(5-fluoro-6-{[(1R,2S)-2-methoxy-2,3-dihydro-1H-inden-1-yl]amino}pyrimidin-4-yl)oxy]-2-hydroxycyclopentyl}methyl sulfamate] | – | ≤ 0.5 µM
8 | NS(=O)(=O)OC[C@@H]1C[C@@H](Nc2ncnc3nc(-c4cccc5cccnc45)[nH]c23)C[C@@H]1O [Compound I-84, {(1S,2S,4R)-2-hydroxy-4-[(8-quinolin-8-yl-7H-purin-6-yl)amino]cyclopentyl}methyl sulfamate] | – | ≤ 0.5 µM
9 | NS(=O)(=O)OC[C@H]1C[C@@H](Nc2cc(CCc3ccccc3)ncn2)[C@H](O)[C@@H]1O [Compound I-86, ((1R,2R,3S,4R)-2,3-dihydroxy-4-{[6-(2-phenylethyl)pyrimidin-4-yl]amino}cyclopentyl)-methyl sulfamate] | < 10 µM | > 0.5 µM
10 | NS(=O)(=O)OC[C@@H]1C[C@@H](Oc2ncnc3[nH]c(-c4cccc5ccccc45)nc23)C[C@@H]1O [Compound I-87, ((1S,2S,4R)-2-hydroxy-4-{[8-(1-naphthyl)-9H-purin-6-yl]oxy}cyclopentyl)methyl sulfamate] | – | ≤ 0.5 µM
11 | NS(=O)(=O)OC[C@@H]1C[C@@H](Nc2ncnc3[nH]c(Cc4ccccc4)nc23)C[C@@H]1O [Compound I-88, {(1S,2S,4R)-4-[(8-benzyl-9H-purin-6-yl)amino]-2-hydroxycyclopentyl}methyl sulfamate] | – | ≤ 0.5 µM
12 | NS(=O)(=O)OC[C@@H]1C[C@@H](Oc2cc(OCc3ccc(Cl)cc3)ncn2)C[C@@H]1O [Compound I-89, [(1S,2S,4R)-4-({6-[(4-chlorobenzyl)oxy]pyrimidin-4-yl}oxy)-2-hydroxycyclopentyl]methyl sulfamate] | > 10 µM | –
13 | NS(=O)(=O)OC[C@@H]1C[C@@H](Nc2ncnc3oc(-c4ccccc4)nc23)C[C@@H]1O [Compound I-90, {(1S,2S,4R)-2-hydroxy-4-[(2-phenyl[1,3]oxazolo[5,4-d]pyrimidin-7-yl)amino]cyclopentyl}methyl sulfamate] | – | ≤ 0.5 µM
14 | NS(=O)(=O)OC[C@H]1C[C@@H](Nc2cc(N[C@H]3CCC[C@@H]3OCc3ccccc3)ncn2)[C@H](O)[C@@H]1O [Compound I-92, {(1R,2R,3S,4R)-4-[(6-{[(1S,2S)-2-(benzyloxy)cyclopentyl]amino}pyrimidin-4-yl)amino]-2,3-dihydroxycyclopentyl}methyl sulfamate] | < 10 µM | > 0.5 µM
15 | COc1cccc(OC)c1-c1nc2c(N[C@@H]3C[C@@H](COS(N)(=O)=O)[C@@H](O)C3)ncnc2[nH]1 [Compound I-93, ((1S,2S,4R)-4-{[8-(2,6-dimethoxyphenyl)-9H-purin-6-yl]amino}-2-hydroxycyclopentyl)methyl sulfamate] | – | ≤ 0.5 µM
16 | NS(=O)(=O)OC[C@@H]1C[C@@H](Oc2ccnc(N[C@H]3CCc4ccccc43)c2)C[C@@H]1O [Compound I-94, [(1S,2S,4R)-4-({2-[(1S)-2,3-dihydro-1H-inden-1-ylamino]pyridin-4-yl}oxy)-2-hydroxycyclopentyl]methyl sulfamate] | < 10 µM | > 0.5 µM
17 | CO[C@H]1Cc2ccccc2[C@H]1Oc1cc(O[C@@H]2C[C@@H](COS(N)(=O)=O)[C@@H](O)C2)ncn1 [Compound I-96, {(1S,2S,4R)-2-hydroxy-4-[(6-{[(1R,2S)-2-methoxy-2,3-dihydro-1H-inden-1-yl]oxy}-pyrimidin-4-yl)oxy]cyclopentyl}methyl sulfamate] | < 10 µM | > 0.5 µM
18 | NS(=O)(=O)OC[C@@H]1C[C@@H](Oc2ccncn2)C[C@@H]1O [Compound I-97, [(1S,2S,4R)-2-hydroxy-4-(pyrimidin-4-yloxy)cyclopentyl]methyl sulfamate] | > 10 µM | –
19 | CO[C@@H]1Cc2ccccc2[C@@H]1Oc1cc(O[C@@H]2C[C@@H](COS(N)(=O)=O)[C@@H](O)C2)ncn1 [Compound I-98, {(1S,2S,4R)-2-hydroxy-4-[(6-{[(1S,2R)-2-methoxy-2,3-dihydro-1H-inden-1-yl]oxy}-pyrimidin-4-yl)oxy]cyclopentyl}methyl sulfamate] | < 10 µM | > 0.5 µM
20 | COc1cccc(-c2nc3c(N[C@@H]4C[C@@H](COS(N)(=O)=O)[C@@H](O)C4)ncnc3[nH]2)c1 [Compound I-99, ((1S,2S,4R)-2-hydroxy-4-{[8-(3-methoxyphenyl)-9H-purin-6-yl]amino}cyclopentyl)methyl sulfamate] | – | ≤ 0.5 µM
21 | CC1(C)Cc2cccc(-c3nc4c(N[C@@H]5C[C@@H](COS(N)(=O)=O)[C@@H](O)C5)ncnc4[nH]3)c2O1 [Compound I-100, ((1S,2S,4R)-4-{[8-(2,2-dimethyl-2,3-dihydro-1-benzofuran-7-yl)-9H-purin-6-yl]amino}-2-hydroxycyclopentyl)methyl sulfamate] | – | ≤ 0.5 µM
22 | Cc1cccc(S(=O)(=O)c2nc3c(O[C@@H]4C[C@@H](COS(N)(=O)=O)[C@@H](O)C4)ncnc3[nH]2)c1 [Compound I-101, [(1S,2S,4R)-2-hydroxy-4-({8-[(3-methylphenyl)sulfonyl]-9H-purin-6-yl}oxy)cyclopentyl]methyl sulfamate] | – | ≤ 0.5 µM
